From patent US20160022636A1, “PHYSIOLOGICAL LIGANDS FOR GPR139” (JANSSEN PHARMACEUTICA NV, priority 2013, published 2016)
Values joined by “and” are separate entries in the source; they are usually repeats but may differ in a detail not shown here. Equal values may be shown once.

Key:
GPR139 [1] = target: T1, GPR139 (Homo sapiens, UniProt Q6DWJ6); test: GTPγS binding dose response, COS7 membranes co-transfected with human GPR139 and GO2Q; assay type: biochemical; parameters: expressed in transfected cells; host or cells: COS7; conditions: human GPR139, FIG. 2 A and B
T1 sequence (Q6DWJ6 1-353): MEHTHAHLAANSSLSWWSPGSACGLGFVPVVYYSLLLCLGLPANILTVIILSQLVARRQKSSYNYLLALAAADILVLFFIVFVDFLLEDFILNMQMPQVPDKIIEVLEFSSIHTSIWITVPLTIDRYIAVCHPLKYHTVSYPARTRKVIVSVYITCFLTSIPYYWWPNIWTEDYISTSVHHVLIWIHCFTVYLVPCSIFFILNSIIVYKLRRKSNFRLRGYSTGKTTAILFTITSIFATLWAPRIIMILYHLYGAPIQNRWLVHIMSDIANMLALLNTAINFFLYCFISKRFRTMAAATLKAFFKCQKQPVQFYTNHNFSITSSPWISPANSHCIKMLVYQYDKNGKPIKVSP
From the text: (§1) FIG. 2: Tryptophan, phenylalanine, and their derivatives activate GPR139. Human (A and B) or mouse (C and D) GPR139 were co-transfected with chimeric G-protein GO2Q into COS7 cells. Cell membranes from transfected cells were used in GTPγS binding studies using various ligands at different concentrations to stimulate GPR139. Membranes from COS7 cells transfected by GO2Q were used as the controls (E and F).

GPCR132 = test: GTPγS binding assay, membranes co-expressing GO2Q and GPCR132; assay type: biochemical; conditions: data not shown
Experimental: (§2) To test for compounds that activate GPR139, different amino acids and their derivatives (Table 2) were tested as ligands in the GTPγS binding assay using cell membranes from COS7 cells co-expressing GPR139 and GO2Q. Cell membrane from COS7 cells expressing GO2Q alone or co-expressing other GPCRs were also tested in GTPγS binding assay in parallel as controls. Each compound was tested in triplicate.

GPCR119 = test: GTPγS binding assay, membranes co-expressing GO2Q and GPCR119; assay type: biochemical; conditions: data not shown
Experimental: as §2

GPR139 [2] = target: T1, GPR139; test: GTPγS binding assay, membranes from COS7 cells co-expressing GPR139 and GO2Q, single concentration screen; assay type: biochemical; parameters: expressed in transfected cells; host or cells: COS7; conditions: for activation of GPR139 in GTPγS binding assay (in words): 1 mM; for Activation levels of GPR139 (GTPγS binding signal), GPR139-GO2Q: 1 mM final concentration, single wells of triplicate, COS7 membranes co-expressing GPR139 and GO2Q
Experimental: (§3) In order identify the ligands for GPR139 two improvements in the detection assay were made to allow for the ligands to be detected. First, we chose to use a GTPγS binding assay instead of using live cultured cells. The GTPγS binding assay is a cell free system that uses the cell membrane of the cell(s) of interest rather than the live cell(s). One advantage of this assay is that potential ligands present in the cell culture media are washed away when the cell membrane is prepared. This reduces the basal level of signal and increase the chance of detecting receptor ligands when assessing compounds that activate the receptor. Second, a GO2Q chimeric G-protein was created to be co-expressed with GPR139 in order to increase the signal-to-noise ratio in the GTPγS binding assay. Historically, the Gi, Go coupled GPCRs offer much greater signal-to-noise ratio in GTPγS binding studies. For Gs and Gq coupled GPCRs, although ligand-stimulated specific signals can be detected in a GTPγS binding assay, the signal-to-noise ratios are often very small. To address this a chimeric GO2-Gq chimeric G-protein, GO2Q, with the N-terminus from Go2 protein and the C-terminus from Gq protein.
as §2

GPR21 = target: T2, GPR21 (Homo sapiens, UniProt Q99679); test: GTPγS binding assay, membranes co-expressing GO2Q and GPR21; assay type: biochemical; conditions: data not shown
T2 construct: expressed in transfected cells; host or cells: COS7
Experimental: as §2

mouse GPR139 = target: T3, mouse GPR139 (Mus musculus, UniProt Q80UC8); test: GTPγS binding dose response, COS7 membranes co-transfected with mouse GPR139 and GO2Q; assay type: biochemical; conditions: mouse GPR139, FIG. 2 C and D
T3 construct: expressed in transfected cells; host or cells: COS7
T3 sequence (Q80UC8 1-345): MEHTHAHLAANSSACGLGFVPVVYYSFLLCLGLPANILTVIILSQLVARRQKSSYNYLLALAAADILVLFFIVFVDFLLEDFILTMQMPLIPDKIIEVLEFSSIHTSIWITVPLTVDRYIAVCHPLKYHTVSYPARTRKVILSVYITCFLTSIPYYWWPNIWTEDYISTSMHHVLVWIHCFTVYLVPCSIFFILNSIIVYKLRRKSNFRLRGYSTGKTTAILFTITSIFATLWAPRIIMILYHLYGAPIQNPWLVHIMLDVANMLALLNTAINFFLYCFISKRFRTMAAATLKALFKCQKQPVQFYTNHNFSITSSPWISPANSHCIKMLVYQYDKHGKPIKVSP
From the text: as §1

GPR139 [3] = target: T1, GPR139; test: calcium mobilization assay (FLIPR), GPR139 transiently expressed in HEK293 cells; assay type: cell-based; parameters: expressed in transfected cells; host or cells: HEK293; conditions: HEK293 cells transiently expressing human GPR139, FIG. 3
From the text: For these experiments human GPR139 was transiently expressed in HEK293 cells and calcium mobilization was stimulated using L-Trp, L-Phe or their derivatives.

GPR182 = target: T4, GPR182 (Homo sapiens, UniProt O15218); test: GTPγS binding assay, membranes co-expressing GO2Q and GPR182; assay type: biochemical; conditions: data not shown
T4 construct: expressed in transfected cells; host or cells: COS7
Experimental: as §2

GO2Q alone = test: GTPγS binding assay, control membranes from COS7 cells expressing GO2Q alone (Ct-GO2Q); assay type: biochemical; conditions: for Activation levels (GTPγS binding signal), Ct-GO2Q: 1 mM final concentration, single wells of triplicate, COS7 membranes with GO2Q alone (control panel); for activation of membranes from cells expressing GO2Q alone (in words): 1 mM, same assay
From the text: as §1, with “Human” for “FIG. 2: Tryptophan, phenylalanine, and their derivatives activate GPR139. Human”
as §3, §2

GPR52 = target: T5, GPR52 (Homo sapiens, UniProt Q9Y2T5); test: GTPγS binding assay, membranes co-expressing GO2Q and GPR52; assay type: biochemical; conditions: data not shown
T5 construct: expressed in transfected cells; host or cells: COS7
Experimental: as §2

GPCR134 = test: GTPγS binding assay, membranes co-expressing GO2Q and GPCR134; assay type: biochemical; conditions: data not shown
Experimental: as §2

T2 sequence (Q99679 whole entry, species assumed): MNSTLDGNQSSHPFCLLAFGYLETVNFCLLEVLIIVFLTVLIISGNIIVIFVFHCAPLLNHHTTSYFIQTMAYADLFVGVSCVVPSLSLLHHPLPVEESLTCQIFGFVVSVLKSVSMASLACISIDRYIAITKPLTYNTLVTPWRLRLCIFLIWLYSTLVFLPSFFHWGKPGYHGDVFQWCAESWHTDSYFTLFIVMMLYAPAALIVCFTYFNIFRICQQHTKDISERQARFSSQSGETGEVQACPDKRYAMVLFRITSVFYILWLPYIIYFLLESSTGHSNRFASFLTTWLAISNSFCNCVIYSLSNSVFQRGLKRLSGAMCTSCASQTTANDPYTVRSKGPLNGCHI
T4 sequence (O15218 whole entry, species assumed): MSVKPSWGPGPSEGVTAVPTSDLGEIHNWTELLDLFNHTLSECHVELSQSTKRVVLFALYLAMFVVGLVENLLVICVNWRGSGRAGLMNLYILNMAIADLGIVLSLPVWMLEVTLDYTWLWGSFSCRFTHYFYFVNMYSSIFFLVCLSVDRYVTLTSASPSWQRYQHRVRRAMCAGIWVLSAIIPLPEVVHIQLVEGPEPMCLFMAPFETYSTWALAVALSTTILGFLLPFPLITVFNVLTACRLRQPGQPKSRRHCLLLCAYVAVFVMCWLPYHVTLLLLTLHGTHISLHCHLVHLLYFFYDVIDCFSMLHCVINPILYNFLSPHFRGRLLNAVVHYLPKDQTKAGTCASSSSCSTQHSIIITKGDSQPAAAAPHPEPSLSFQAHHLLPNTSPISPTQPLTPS
T5 sequence (Q9Y2T5 whole entry, species assumed): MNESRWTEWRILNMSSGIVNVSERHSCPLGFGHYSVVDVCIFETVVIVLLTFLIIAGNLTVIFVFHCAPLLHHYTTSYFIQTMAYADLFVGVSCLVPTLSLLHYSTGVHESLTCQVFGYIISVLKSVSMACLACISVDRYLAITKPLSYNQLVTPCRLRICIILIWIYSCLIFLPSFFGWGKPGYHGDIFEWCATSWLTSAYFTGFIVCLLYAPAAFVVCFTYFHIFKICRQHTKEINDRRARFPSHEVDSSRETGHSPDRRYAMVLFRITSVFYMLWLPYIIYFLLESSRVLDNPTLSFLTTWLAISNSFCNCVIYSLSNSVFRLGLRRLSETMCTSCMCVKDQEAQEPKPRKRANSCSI

Compound | dose response activation of GPR139 (in words) (GPR139 [1]) | activation of membranes co-expressing GO2Q and GPCR132 (in words) (GPCR132) | activation of membranes co-expressing GO2Q and GPCR119 (in words) (GPCR119) | activation of GPR139 in GTPγS binding assay (in words) (GPR139 [2]) | Activation levels of GPR139 (GTPγS binding signal), GPR139-GO2Q (GPR139 [2]) | activation of membranes co-expressing GO2Q and GPR21 (in words) (GPR21) | dose response activation of GPR139 (in words) (mouse GPR139) | stimulation of calcium mobilization (in words) (GPR139 [3]) | activation of membranes co-expressing GO2Q and GPR182 (in words) (GPR182) | Activation levels (GTPγS binding signal), Ct-GO2Q (GO2Q alone) | activation of membranes from cells expressing GO2Q alone (in words) (GO2Q alone) | activation of membranes co-expressing GO2Q and GPR52 (in words) (GPR52) | activation of membranes co-expressing GO2Q and GPCR134 (in words) (GPCR134) | Activation levels of GPR139 (GTPγS binding signal), GPR139-GO2Q (GPR139 [2]; listed as b-phenylethylamine) | Activation levels (GTPγS binding signal), Ct-GO2Q (GO2Q alone; listed as b-phenylethylamine)
N[C@@H](Cc1ccccc1)C(=O)O [L-Phe, L-phenylalanine] | specifically activate GPR139 in a dose-responsive manner | did not activate | did not activate | able to activate GPR139 | 8697 and 6925 and 8417 | did not activate | specifically activate GPR139 in a dose-responsive manner | specifically stimulate calcium mobilization | did not activate | 2190 and 2215 and 2345 | did not activate | did not activate | did not activate |  | 
N[C@@H](Cc1c[nH]c2ccccc12)C(=O)O [L-Trp, L-tryptophan] | specifically activate GPR139 in a dose-responsive manner | did not activate | did not activate | able to activate GPR139 | 8141 and 9121 and 9149 | did not activate | specifically activate GPR139 in a dose-responsive manner | specifically stimulate calcium mobilization | did not activate | 2172 and 2234 and 2272 | did not activate | did not activate | did not activate |  | 
NCCc1ccccc1 [β-phenylethylamine] | specifically activate GPR139 in a dose-responsive manner |  |  | activated GPR139 |  |  | specifically activate GPR139 in a dose-responsive manner |  |  |  |  |  |  | 6705 and 7099 and 6634 | 2334 and 2065 and 2024
